From US20260232573A1, “DEGARELIX ORGANIC SOLVENT FORMULATIONS” (TOLMAR INTERNATIONAL LIMITED, priority 2023, published 2026)
Non-standard residues stand in square brackets, D forms with d. Residues, ends and D or L forms follow the SMILES beside them. *: point of attachment. dPhe(4-NHCONH2) = NC(=O)Nc1ccc(C[C@@H](N)C(=O)O)cc1; Dihydroorotyl(S) = O=C1C[C@@H](C(=O)*)NC(=O)N1; dPhe(4-Cl) = N[C@H](Cc1ccc(Cl)cc1)C(=O)O; Phe(4-NH2) = Nc1ccc(C[C@H](N)C(=O)O)cc1; d2Nal = N[C@H](Cc1ccc2ccccc2c1)C(=O)O; Lys(iPr) = CC(C)NCCCC[C@H](N)C(=O)O; d3Pal = N[C@H](Cc1cccnc1)C(=O)O

Type: physicochemical
From the text: Various organic solvents were screened for the maximal solubility of DgA-DS. […] Other solvents tested include-benzyl alcohol, PEG 300, propylene carbonate, triacetin, triethyl citrate, ethyl acetate, and benzyl benzoate.
Bulk solution: To produce the drug/solvent bulk solution comprising the active pharmaceutical ingredient (DgA or DgC), the desired amount of the DgA-DS or DgC-DS was combined with the solvent NMP or DMSO or combination of solvents with or without co-solvent or other additives, in the indicated amounts (see individual experiments below). The API and solvent were combined in a glass vial or jar and blanketed with nitrogen. Jars were mixed using the jar mill, Turbula, or shaker at room temperature until homogeneous. DgA or DgC are very soluble in NMP or DMSO and can load higher concentrations (at least 40% w/w).

Row | Compound | concentration that can be loaded (solubility) | solubility | solubility capacity of degarelix
1 | CC(=O)N[C@H](Cc1ccc2ccccc2c1)C(=O)N[C@H](Cc1ccc(Cl)cc1)C(=O)N[C@H](Cc1cccnc1)C(=O)N[C@@H](CO)C(=O)N[C@@H](Cc1ccc(NC(=O)[C@@H]2CC(=O)NC(=O)N2)cc1)C(=O)N[C@H](Cc1ccc(NC(N)=O)cc1)C(=O)N[C@@H](CC(C)C)C(=O)N[C@@H](CCCCNC(C)C)C(=O)N1CCC[C@H]1C(=O)N[C@H](C)C(N)=O [DgA-DS, degarelix acetate] (Ac-[d2Nal][dPhe(4-Cl)][d3Pal]S[Phe(4-NH2)](Dihydroorotyl(S))[dPhe(4-NHCONH2)]L[Lys(iPr)]P[dA]-NH2) | at least 40 % w/w | either insoluble or has solubility limits much lower than NMP, DMSO or DMA | 35-40 % w/w
2 | degarelix citrate [DgC] | at least 40 % w/w |  | 
